Patent publication US20220364069A1, “METHOD FOR THE PRODUCTION OF AN ENZYMATIC COMPOSITION COMPRISING A RECOMBINANT ENDOPEPTIDASE” (NEMYSIS LIMITED, priority 2019, published 2022)
Converted amounts (≈) assume the structure as drawn. Where two headings read alike, the source gives them in different places.

Assays:
[1] = test system: Staphylococcus aureus ATCC6538; experiment: Broth microdilution antimicrobial assay, S. aureus; assay type: cell-based; settings: S. aureus ATCC6538, 20 h, 35° C.; for MIC: Staphylococcus aureus, read-out: MIC (Minimal Inhibitory Concentration)
Text: (§1) As known, S. lividans TK24 could potentially produce actinorhodin (ACT), undecylprodigiosin (UDP), and calcium-dependent antibiotic (CDA), especially when grown under fermentation conditions. Broth microdilution assay, standardized by the Clinical and Laboratory Standards Institute (CLSI) was then used to evaluate antibiotic presence in samples deriving from enzyme preparations obtained by the method of the invention. Antimicrobial activity has been tested against test microorganisms (test-mo), known to not show any antibiotic resistance: Staphylococcus aureus ATCC6538 (representative of Gram+); Escherichia coli L47 (Lepetit collection; representative of Gram-); Candida albicans L145 (Lepetit collection; representative of Yeast).
(§2) A two-fold serial dilution of the samples to be tested was performed in sterile 96-well microplates, then inoculated with the test-mo in their respective medium (100 μl/well final volume); each determination was carried out in triplicate. The inoculated microplates were then incubated for 18, 20 and 24 h for E. coli, S. aureus and C. albicans, respectively, at 35° C. Antimicrobial activity of samples of unknown “antimicrobial” concentration was measured as endpoint, that is the highest dilution that inhibits the test strain growth; it was determined by visual examination of the microplates with the aid of a magnifying mirror.

Escherichia coli L47 = experiment: Broth microdilution antimicrobial assay, E. coli; assay type: cell-based; settings: E. coli L47, 18 h, 35° C.; for MIC: Escherichia coli, read-out: MIC (Minimal Inhibitory Concentration)
Text: as §1, §2

Candida albicans L145 = experiment: Broth microdilution antimicrobial assay, C. albicans; assay type: cell-based; settings: for MIC: Candida albicans, L145, read-out: MIC (Minimal Inhibitory Concentration)
Text: as §1, §2

[2] = Activity of culture supernatant toward sucAAPF-AMC at various pH; assay type: biochemical
Protocol: (§3) FIG. 1. Activity of Actinoallomurus A8 culture supernatant fraction containing the native E40. A: relative activity toward the substrate sucAlaAlaProPhe-AMC (sucAAPF-AMC) at various pH values (the optimum —100% activity— is at pH 5). B: Gliadin digestion after 2 hours of incubation at 37° C., pH 3. Gel stained with Coomassie R250 brilliant blue; Lane 1: gliadin alone, lane 2: gliadin+E40-containing supernatant fraction.
FIG. 3. Recombinant E40 (SEQ ID NO: 2) obtained by S. lividans TK24/p1J86/e40 submerged fermentation, at flask scale (panels A-C) or in a 15 L bioreactor, followed by purification (panels D-E). A: activity toward the substrate sucAAPF-AMC at pH 5 of supernatant samples taken at different fermentation times (♦72, ▴96, ●168, ▪192 fermentation hours) from the producing S. lividans TK24/p1J86/E40 (E40, continuous line) and absence of activity of supernatant samples taken from the pIJ86-empty control strain (ctr, dashed lines). Activity is shown as relative fluorescent units (rfu, Y axis) produced in time (X axis). […] D: profile of an enzyme preparation comprising recombinant E40 purified from the 15 L fermentation; lane 1: final enzyme preparation comprising recombinant E40 stained with Coomassie (the arrow indicates recombinant E40), lane 2: zymography as in C, lane 3: band of gelatin hydrolysis after 2 hours of digestion at 37° C. and pH 5, visualized after Coomassie staining of the gelatin substrate. E: relative activity (%) of recombinant E40 in the purified enzyme preparation at different pH values (from 2 to 8), evaluated with the substrate suc-Ala-Ala-Pro-Phe-pNA.
As well as native E40, recombinant E40 was active in the pH range 3-6, with an optimum at pH 5 (FIG. 3, panel B).

gliadin = experiment: Gliadin digestion by native E40 fraction (SDS-PAGE); assay type: biochemical; settings: 2 hours, 37° C., pH 3
Protocol: as §3
Native E40 of sequence SEQ ID NO: 3 was purified from the supernatant fraction of an Actinoallomurus A8 culture isolated from soil (native E40) as described in WO2013083338.

Molecule: C[C@@H]1[C@H](O)[C@@H](C)/C=C/C=C/C=C/C=C/C=C/C=C/C=C/[C@H](O[C@@H]2O[C@H](C)[C@@H](O)[C@H](N)[C@@H]2O)C[C@@H]2O[C@](O)(C[C@@H](O)C[C@@H](O)[C@H](O)CC[C@@H](O)C[C@@H](O)CC(=O)O[C@H]1C)C[C@H](O)[C@H]2C(=O)O [Amphotericin B, amphotericin B]
- MIC (Minimal Inhibitory Concentration) [1]: >128 µg/mL
- MIC (Minimal Inhibitory Concentration) (Escherichia coli L47): >128 µg/mL
- MIC (Minimal Inhibitory Concentration) (Candida albicans L145; C. albicans L14, 24 h, 35° C.): 0.5 µg/mL (≈ 0.541 µM)

Molecule: CN[C@@H]1[C@@H](O[C@H]2O[C@H](CO)[C@@H](N)[C@H](O)[C@H]2O)OC2C[C@@H](N)[C@@H](O[C@H]3[C@H](O)[C@@H](O)[C@H](N)C[C@@H]3N)OC2[C@@H]1O (stereo partly shown) [Apramycin]
- MIC [1]: 8 µg/mL (≈ 14.8 µM)
- MIC (Escherichia coli L47): 8 µg/mL (≈ 14.8 µM)
- MIC (Candida albicans L145; C. albicans L14, 24 h, 35° C.): > 128 µg/mL

Molecule: c1c[nH]cn1 [Imidazole, imidazole]
- MIC (Candida albicans L145; C. albicans L14): 3.9 mM

Molecule: CCCCCCCCCC(=O)N[C@@H](Cc1c[nH]c2ccccc12)C(=O)N[C@H](CC(N)=O)C(=O)N[C@@H](CC(=O)O)C(=O)N[C@@H]1C(=O)NCC(=O)N[C@@H](CCCN)C(=O)N[C@@H](CC(=O)O)C(=O)N[C@H](C)C(=O)N[C@@H](CC(=O)O)C(=O)NCC(=O)N[C@H](CO)C(=O)N[C@@H]([C@H](C)CC(=O)O)C(=O)N[C@@H](CC(=O)c2ccccc2N)C(=O)O[C@@H]1C [Daptomycin, daptomycin]
- MIC [1]: 0.5 µg/mL (≈ 0.309 µM)
- MIC (Escherichia coli L47): > 128 µg/mL
- MIC (Candida albicans L145; C. albicans L14, 24 h, 35° C.): > 128 µg/mL

B1: Native E40: E40 of SEQ ID NO: 3 purified from supernatant fraction of an Actinoallomurus A8 culture as in WO2013083338 (protein)
chain: MSRRVTGTILGGLILAMVPFLSTAANAAPQAAPASVSHPFHHSCATVKPGRASCNALVRSDIAQSAATLAHQAAAPSGLSPANLQSAYKLPSSTAGSGQTVAIVDAYDAPTAEADLNVYRSQFGLGACTTANGCFKKVDQNGGTSYPRKDGGWAQEISLDLDMVSAVCPNCKIVLVEAKTNSFANLGTAENTAASLANVISNSYGGSDASDASYGSYYNHPGKAITVSSGDAGYGVEYPASSHYVTAVGGTSLRTASTSRGWSETAWSGAGSGCSAYNTALSGQSGLTGCSRRAVADVSAVADPATGVAVYDSTAYQGQSGWMVFGGTSVAAPIIGGVYGLAANAASIDNNYPYAHTSSLFDVTSGSNGTCTTTKWCTAGTGWDGPTGLGTPNGTGAF
modifications: Actinoallomurus
- pH range of marked glutenase activity ([2]; native E40): 3-6
- pH optimum of relative activity ([2]; native E40-containing Actinoallomurus A8 supernatant fraction, sucAAPF-AMC): 5
- gliadin digestion (gliadin): completely digested
